The text below walks through data of ChEMBL document CHEMBL1148480, “Structure-activity studies of orexin a and orexin B at the human orexin 1 and orexin 2 receptors led to orexin 2 receptor selective and orexin 1 receptor preferring ligands” (J Med Chem, 2004).

Non-standard residues stand in square brackets, D forms with d. Residues, ends and D or L forms follow the SMILES beside them. pGlu = O=C1CC[C@@H](C(=O)O)N1; Ahx = NCCCCCC(=O)O

A word on the EC50: it is the concentration at which the effect is half-maximal.

In the experiment the target is T1, Orexin/Hypocretin receptor type 1 (Homo sapiens, UniProt O43613).
T1 sequence (O43613 whole entry): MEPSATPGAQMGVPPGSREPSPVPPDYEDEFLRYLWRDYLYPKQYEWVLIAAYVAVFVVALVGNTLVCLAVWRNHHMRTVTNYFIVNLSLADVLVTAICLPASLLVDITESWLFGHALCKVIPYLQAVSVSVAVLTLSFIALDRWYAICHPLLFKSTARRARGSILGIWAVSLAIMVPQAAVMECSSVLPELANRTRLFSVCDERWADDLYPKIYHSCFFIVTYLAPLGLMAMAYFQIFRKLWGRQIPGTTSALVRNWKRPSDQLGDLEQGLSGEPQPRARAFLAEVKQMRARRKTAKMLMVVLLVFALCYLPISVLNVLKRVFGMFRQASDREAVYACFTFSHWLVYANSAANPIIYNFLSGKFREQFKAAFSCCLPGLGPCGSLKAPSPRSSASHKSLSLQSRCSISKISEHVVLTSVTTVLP
As to the kind of experiment: Effective agonist concentration to human orexin receptor type 1 determined using the Xlfit program. The experiment is classed as functional.
For `CC[C@H](C)[C@H](NC(=O)CNC(=O)[C@H](C)NC(=O)[C@H](C)NC(=O)[C@H](Cc1cnc[nH]1)NC(=O)[C@H](CC(N)=O)NC(=O)CNC(=O)[C@H](CO)NC(=O)[C@H](C)NC(=O)[C@H](CCC(N)=O)NC(=O)[C@H](CC(C)C)NC(=O)[C@H](CC(C)C)NC(=O)[C@H](CCCNC(=N)N)NC(=O)[C@H](CCC(N)=O)NC(=O)[C@H](CC(C)C)NC(=O)[C@H](CCCNC(=N)N)NC(=O)CNC(=O)[C@H](C)NC(=O)[C@H](CC(C)C)NC(=O)CN)C(=O)N[C@@H](CC(C)C)C(=O)N[C@H](C(=O)N[C@@H](CCSC)C(N)=O)[C@@H](C)O` (H-GLAGRLQRLLQASGNHAAGILTM-NH2), the response was half-maximal at 1.64 µM (EC50).
`CC[C@H](C)[C@H](NC(=O)CNC(=O)[C@H](C)NC(=O)[C@H](C)NC(=O)[C@H](Cc1c[nH]cn1)NC(=O)[C@H](CC(N)=O)NC(=O)CNC(=O)[C@H](CO)NC(=O)[C@H](C)NC(=O)[C@H](CCC(N)=O)NC(=O)[C@H](CC(C)C)NC(=O)[C@H](CC(C)C)NC(=O)[C@H](CCCN=C(N)N)NC(=O)[C@H](CCC(N)=O)NC(=O)[C@H](CC(C)C)NC(=O)[C@H](CCCN=C(N)N)NC(=O)[C@H](C)NC(=O)[C@H](CCC(N)=O)NC(=O)[C@H](CC(C)C)NC(=O)CN)C(=O)N[C@@H](CC(C)C)C(=O)N[C@H](C(=O)N[C@@H](CCSC)C(N)=O)[C@@H](C)O` (H-GLQARLQRLLQASGNHAAGILTM-NH2) registered an EC50 of 2.3 µM.
`CC[C@H](C)[C@H](NC(=O)CNC(=O)[C@H](C)NC(=O)[C@H](C)NC(=O)[C@H](Cc1cnc[nH]1)NC(=O)[C@H](CC(N)=O)NC(=O)CNC(=O)[C@H](CO)NC(=O)[C@H](C)NC(=O)[C@H](CCC(N)=O)NC(=O)[C@H](CC(C)C)NC(=O)[C@H](CC(C)C)NC(=O)[C@H](C)NC(=O)[C@H](CCC(N)=O)NC(=O)[C@H](CC(C)C)NC(=O)[C@H](CCCNC(=N)N)NC(=O)CNC(=O)[C@H](CCC(N)=O)NC(=O)[C@H](CC(C)C)NC(=O)CN)C(=O)N[C@@H](CC(C)C)C(=O)N[C@H](C(=O)N[C@@H](CCSC)C(=O)O)[C@@H](C)O` (H-GLQGRLQALLQASGNHAAGILTM-OH) came in with a concentration for a half-maximal effect (EC50) of 4.34 µM.
Regarding `CC[C@H](C)[C@H](NC(=O)CNC(=O)[C@H](C)NC(=O)[C@H](C)NC(=O)[C@H](Cc1c[nH]cn1)NC(=O)[C@H](CC(N)=O)NC(=O)CNC(=O)[C@H](CO)NC(=O)[C@H](C)NC(=O)[C@H](CCC(N)=O)NC(=O)[C@H](CC(C)C)NC(=O)[C@H](CC(C)C)NC(=O)[C@H](CCCNC(=N)N)NC(=O)[C@H](CCC(N)=O)NC(=O)[C@H](C)NC(=O)[C@H](CCCNC(=N)N)NC(=O)CNC(=O)[C@H](CCC(N)=O)NC(=O)[C@H](CC(C)C)NC(=O)CN)C(=O)N[C@@H](CC(C)C)C(=O)N[C@H](C(=O)N[C@@H](CCSC)C(=O)O)[C@@H](C)O` (H-GLQGRAQRLLQASGNHAAGILTM-OH), the midpoint of the response, the EC50, lay at 11.4 µM.
Consider `CC[C@H](C)[C@H](NC(=O)CNC(=O)[C@H](C)NC(=O)[C@H](C)NC(=O)[C@H](Cc1c[nH]cn1)NC(=O)[C@H](CC(N)=O)NC(=O)CNC(=O)[C@H](C)NC(=O)CNC(=O)[C@H](Cc1c[nH]cn1)NC(=O)[C@H](CC(C)C)NC(=O)[C@H](CC(C)C)NC(=O)CCCCCNC(=O)[C@H](CC(=O)O)NC(=O)[C@@H]1CCCN1C(=O)[C@H](CC(C)C)NC(=O)[C@@H]1CCCN1C(=O)[C@@H]1CCC(=O)N1)C(=O)N[C@@H](CC(C)C)C(=O)N[C@H](C(=O)N[C@@H](CC(C)C)C(=O)O)[C@@H](C)O` ([pGlu]PLPD[Ahx]LLHGAGNHAAGILTL-OH), for which the EC50 is greater than 1000 µM.
`CC[C@H](C)[C@H](NC(=O)CNC(=O)[C@H](C)NC(=O)[C@H](C)NC(=O)[C@H](Cc1cnc[nH]1)NC(=O)[C@H](CC(N)=O)NC(=O)CNC(=O)[C@H](CO)NC(=O)[C@H](C)NC(=O)[C@H](CCC(N)=O)NC(=O)[C@H](CC(C)C)NC(=O)[C@H](CC(C)C)NC(=O)[C@H](CCCNC(=N)N)NC(=O)[C@H](CCC(N)=O)NC(=O)[C@H](CC(C)C)NC(=O)[C@H](CCCNC(=N)N)NC(=O)CNC(=O)[C@H](CCC(N)=O)NC(=O)[C@@H]1CCCN1C(=O)CN)C(=O)N[C@@H](CC(C)C)C(=O)N[C@H](C(=O)N[C@@H](CCSC)C(N)=O)[C@@H](C)O` (H-GPQGRLQRLLQASGNHAAGILTM-NH2) had a 50% effective concentration (EC50) of 1.7 µM.
Turning to `CC[C@H](C)[C@H](NC(=O)CNC(=O)[C@H](C)NC(=O)[C@H](C)NC(=O)[C@H](Cc1c[nH]cn1)NC(=O)[C@H](CC(N)=O)NC(=O)CNC(=O)[C@H](C)NC(=O)[C@H](C)NC(=O)[C@H](CCC(N)=O)NC(=O)[C@H](CC(C)C)NC(=O)[C@H](CC(C)C)NC(=O)[C@H](CCCN=C(N)N)NC(=O)[C@H](CCC(N)=O)NC(=O)[C@H](CC(C)C)NC(=O)[C@H](CCCN=C(N)N)NC(=O)CNC(=O)[C@H](CCC(N)=O)NC(=O)[C@H](CC(C)C)NC(=O)CN)C(=O)N[C@@H](CC(C)C)C(=O)N[C@H](C(=O)N[C@@H](CCSC)C(=O)O)[C@@H](C)O` (H-GLQGRLQRLLQAAGNHAAGILTM-OH), the EC50 worked out at 1.46 µM.
For the molecule `CC[C@H](C)[C@H](NC(=O)CNC(=O)[C@H](C)NC(=O)[C@H](C)NC(=O)[C@H](Cc1c[nH]cn1)NC(=O)[C@H](CC(N)=O)NC(=O)CNC(=O)[C@H](CO)NC(=O)[C@H](C)NC(=O)[C@H](CCC(N)=O)NC(=O)[C@H](CC(C)C)NC(=O)[C@H](CC(C)C)NC(=O)[C@H](CCCN=C(N)N)NC(=O)[C@H](CCC(N)=O)NC(=O)[C@H](CC(C)C)NC(=O)[C@H](CCCN=C(N)N)NC(=O)CNC(=O)[C@H](CCC(N)=O)NC(=O)[C@H](C)NC(=O)CN)C(=O)N[C@@H](CC(C)C)C(=O)N[C@H](C(=O)N[C@@H](CCSC)C(N)=O)[C@@H](C)O` (H-GAQGRLQRLLQASGNHAAGILTM-NH2), a half-maximal response (EC50) required 7.41 µM.
`CC[C@H](C)[C@H](NC(=O)CNC(=O)[C@H](C)NC(=O)[C@H](C)NC(=O)[C@H](Cc1cnc[nH]1)NC(=O)[C@H](CC(N)=O)NC(=O)CNC(=O)[C@H](C)NC(=O)CNC(=O)[C@H](Cc1cnc[nH]1)NC(=O)[C@H](CC(C)C)NC(=O)[C@H](CC(C)C)NC(=O)[C@H](CCC(=O)O)NC(=O)[C@H](Cc1ccc(O)cc1)NC(=O)[C@H](CC(C)C)NC(=O)[C@H](CCCNC(=N)N)NC(=O)[C@H](CS)NC(=O)[C@H](CO)NC(=O)[C@H](CS)NC(=O)[C@@H](NC(=O)[C@H](CCCCN)NC(=O)[C@H](CCC(N)=O)NC(=O)[C@H](CCCNC(=N)N)NC(=O)[C@H](CS)NC(=O)[C@H](CS)NC(=O)[C@H](CC(=O)O)NC(=O)[C@@H]1CCCN1C(=O)[C@H](CC(C)C)NC(=O)[C@@H]1CCCN1C(=O)[C@@H]1CCC(=O)N1)[C@@H](C)O)C(=O)N[C@@H](CC(C)C)C(=O)N[C@H](C(=O)N[C@@H](CC(C)C)C(=O)O)[C@@H](C)O` gave an EC50 of 0.16 µM.
Take `CC[C@H](C)[C@H](NC(=O)CNC(=O)[C@H](C)NC(=O)[C@H](C)NC(=O)[C@H](Cc1c[nH]cn1)NC(=O)[C@H](CC(N)=O)NC(=O)[C@H](C)NC(=O)[C@H](CO)NC(=O)[C@H](C)NC(=O)[C@H](CCC(N)=O)NC(=O)[C@H](CC(C)C)NC(=O)[C@H](CC(C)C)NC(=O)[C@H](CCCN=C(N)N)NC(=O)[C@H](CCC(N)=O)NC(=O)[C@H](CC(C)C)NC(=O)[C@H](CCCN=C(N)N)NC(=O)CNC(=O)[C@H](CCC(N)=O)NC(=O)[C@H](CC(C)C)NC(=O)CN)C(=O)N[C@@H](CC(C)C)C(=O)N[C@H](C(=O)N[C@@H](CCSC)C(=O)O)[C@@H](C)O` (H-GLQGRLQRLLQASANHAAGILTM-OH): the EC50 was 2.21 µM.
